Measured values: patent US4324786A, “Pyrido[2,3-e]-as-triazine derivatives and pharmaceutical compositions” (Egyt Gyogyszervegyeszeti Gyar, priority 1979, dated 1982)

Legend:
in vivo = conditions: mouse, mice, oral
Description: The toxicity was determined on mice after oral adminstration.

mice [1] = assay: motility inhibiting effect on mice, method of Borsy et al.; type: in vivo; conditions: for ED50: Mus musculus
Description: The motility inhibiting effects of the new compounds were tested on mice by the method of Borsy et al. [Int. Pharmacodyn. […] The compounds to be tested were administered orally to the animals.

mice [2] = assay: tetrabenazine antagonizing effect (inhibition of ptosis provoked by tetrabenazine) on mice, method of Brodie; type: in vivo; conditions: oral
mice [3] = assay: animal or person; type: in vivo; conditions: potentiation of the toxicity of yohimbine, oral; for ED50: Mus musculus
Description: The ability of the compounds in potentiating the toxicity of yohimbine was tested on mice by the method of Quinton [Brit. J. Pharmacol. 21, 51 (1963)]. The compounds were administered orally to the animals.

mice [4] = assay: analgesic effect on mice, method of Newbould; type: in vivo; conditions: oral; for ED50: Mus musculus
Description: The analgesic effects of the new compounds were tested on mice after oral administration, as described by Newbould [Brit.

rats = assay: antiphlogistic effect on rats, method of Winter; type: in vivo; conditions: oral; for ED50: Rattus norvegicus
Description: The antiphlogistic effects of the new compounds were determined on rats by the method of Winter [Proc. Soc. Exp. Biol. Med. 111, 544 (1962)]. The compounds were administered orally to the animals.

mice [5] = assay: narcosis potentiating effect on mice, method of Kaergaard; conditions: for ED50: Mus musculus, po; for Therapeutical index: narcosis potentiating effect, mice, oral
Description: The narcosis potentiating effects was tested on mice according to the method of Kaergaard [Arch. […] The compounds under examination were administered orally to the animals.

[6] = motility inhibiting effect, mice, oral

| Structure (SMILES) | LD50 (in vivo) [mg/kg] | Therapeutical index (mice [1]; [6]) | Therapeutical index (mice [2]) | ED50 (mice [3]) [mg/kg] | Therapeutical index (mice [3]) | ED50 (mice [4]) [mg/kg] | Therapeutical index (mice [4]) | ED50 (rats) [mg/kg] | Therapeutical index (rats) | ED50 (mice [5]) [mg/kg] | Therapeutical index (mice [5]) | ED50 (mice [1]; motility inhibiting effect, mice, oral, read-out: ED50) [mg/kg] | ED50 (mice [2]; Mus musculus) [mg/kg] | ED50 (mice [1]; po) [mg/kg] |
| --- | --- | --- | --- | --- | --- | --- | --- | --- | --- | --- | --- | --- | --- | --- |
| CCC(=O)N1C(N2CCOCC2)=Nc2ncccc2N1C(=O)CC [Example 1, 3-morpholino-1,2-dipropionyl-1,2-dihydro-pyrido[2,3-e]-as-triazine] | 1600 | 5 | 5 | 320 | 5 | 300 | 5.3 | 300 | 5.3 | 54 | 29.6 |  |  |  |
| CCC(=O)N1NC(N(C(C)C)C(C)C)=Nc2ncccc21 [Example 2, 3-diisopropylamino-1-propionyl-1,2-dihydro-pyrido[2,3-e]-as-triazine] | 2000 | 8 | 13.3 | 140 | 14.3 | 350 | 5.7 | 450 | 4.4 | 40 | 50 | 250 | 150 |  |
| CCCC(C)(COC(N)=O)COC(N)=O [Meprobamate, reference compound] |  | 4.1 |  |  |  |  |  |  |  | 250 | 4.2 |  |  | 270 |
| CC(=O)Nc1ccc(O)cc1 [Paracetamol, reference compound] |  |  |  |  |  | 180 |  |  |  |  |  |  |  |  |
